The test concerns Botrytis cinerea (B05.10). Kind of test: Resazurin antifungal assay of 180 alpha-factor peptide variants towards Botrytis (Example 2). The format is cell-based. The note with it: % inhibition of fungal growth, Botrytis conidia, resazurin; for Inhibition at 10 μM: peptide 10 μM; for Inhibition at 20 μM: peptide 20 μM; for Inhibition at 50 μM: peptide 50 μM; for Inhibition at 100 μM: peptide 100 μM. As for the experimental part:
The antifungal activity of 180 alpha-factor peptide variants towards Botrytis was tested. Experimental design:
Peptides corresponding to SEQ ID NO: 1-180 were chemically synthesized using the solid-phase synthesis method and resuspended in water to a stock solution of 1 mM. The stock solution was aliquoted in cryovials and stored at −80° C.
The Botrytis cinerea culture (B05.10) isolate was acquired from the Centraalbureau voor Schimmelcultures, the Netherlands. The Botrytis fungus was propagated on 0.5% V8 agar plates (200 ml V8 Juice, 3 g CaCO3, 15 g agar, 800-ml millipore water) at 20° C., in a 12 h photoperiod for 21 days.
Fungal conidia were harvested by scraping a Botrytis plate flooded with 1 ml water with 0.1% Tween 80 solution. Conidia were then collected in a 50 ml falcon tube by passing the solution through a 40 micron filter. The solution was then centrifuged at 6000 rpm and the pellet was resuspended in 1 ml of 20% glycerol. The conidia concentration of the resulting solution was counted using a hemocytometer. The stock was diluted to […] using 20% glycerol and frozen in 100 μl aliquots in −80° C. until further use.
Peptides were tested for activity against Botrytis, using the resazurin assay. For this, fungal stock conidia was first diluted to 5000 conidia/well. 50 μl of the spore suspension was added to each well of the sterile 96-well clear bottom testing plate and mixed with 50 μl of peptide solutions to a final concentration of 100, 50, 20, 15 and 10 μM. The plate was incubated for 24 h at 20° C. After 24 h, 10 μl of resazurin dye was added to the microtiter plate and incubated again for […]. Fluorescence was measured at 570/620 nm after 4 h of incubation with resazurin.
Growth inhibition was calculated by subtracting the fluorescence values of conidia only wells from sample wells and depicted as % inhibition of fungal growth. Four technical replicates were used for all treatments.
(In general: Resazurin is reduced to fluorescent resorufin, in cell work by metabolically active cells.)

Data on 14 molecules can be found in patent US20250382332A1, “NOVEL ALPHA-FACTOR BASED PEPTIDES WITH ANTIFUNGAL ACTIVITY” (INVAIO SCIENCES, INC., priority 2024, published 2025).

Peptide text beside a SMILES is read from it.

The term Inhibition denotes the percentage by which the read-out fell short of the control. On to `CSCC[C@H](NC(=O)CNC(=O)[C@H](CCC(N)=O)NC(=O)CNC(=O)[C@H](CC(N)=O)NC(=O)[C@H](CCCCN)NC(=O)[C@H](CC(C)C)NC(=O)[C@H](C)NC(=O)[C@@H](NC(=O)[C@H](Cc1c[nH]c2ccccc12)NC(=O)[C@H](Cc1c[nH]cn1)NC(=O)[C@@H](N)Cc1c[nH]c2ccccc12)C(C)C)C(=O)N[C@@H](Cc1ccc(O)cc1)C(=O)O` [compound 23] (H-WHWVALKNGQGMY-OH; N-terminus and C-terminus assumed), for which the “Inhibition at 10 μM” value is recorded as <90%, the “Inhibition at 20 μM” value is <90%, the “Inhibition at 50 μM” value came to 98.68% and the “Inhibition at 100 μM” value worked out at 100%.
In the case of `CSCC[C@H](NC(=O)[C@@H]1CCCN1C(=O)[C@H](CCC(N)=O)NC(=O)CNC(=O)[C@@H]1CCCN1C(=O)[C@H](CCCCN)NC(=O)[C@H](Cc1ccccc1)NC(=O)[C@H](CC(N)=O)NC(=O)[C@H](CC(C)C)NC(=O)[C@H](Cc1ccc(O)cc1)NC(=O)[C@H](Cc1c[nH]cn1)NC(=O)[C@@H](N)CCCCN)C(=O)N[C@@H](Cc1ccc(O)cc1)C(=O)O` [compound 24] (H-KHYLNFKPGQPMY-OH; N-terminus and C-terminus assumed), the “Inhibition at 10 μM” value is <90%, the “Inhibition at 20 μM” value is listed as <90%, the “Inhibition at 50 μM” value amounted to 96.95% and the “Inhibition at 100 μM” value was 100%.
With `CSCC[C@H](NC(=O)[C@@H]1CCCN1C(=O)[C@H](CCC(N)=O)NC(=O)CNC(=O)[C@@H](NC(=O)[C@H](CCCCN)NC(=O)[C@H](Cc1ccccc1)NC(=O)[C@H](CCC(N)=O)NC(=O)[C@H](CC(C)C)NC(=O)[C@H](CC(C)C)NC(=O)[C@H](Cc1c[nH]cn1)NC(=O)[C@@H](N)Cc1c[nH]c2ccccc12)C(C)C)C(=O)N[C@@H](Cc1ccc(O)cc1)C(=O)O` [compound 25] (H-WHLLQFKVGQPMY-OH; N-terminus and C-terminus assumed), the “Inhibition at 10 μM” value is on record as <90%, the “Inhibition at 20 μM” value is on record as <90%, the “Inhibition at 50 μM” value is recorded as 92.63% and the “Inhibition at 100 μM” value amounted to 100%.
For `CC[C@H](C)[C@H](NC(=O)[C@H](Cc1c[nH]c2ccccc12)NC(=O)[C@H](Cc1c[nH]cn1)NC(=O)[C@@H](N)Cc1c[nH]c2ccccc12)C(=O)N[C@@H](CCC(N)=O)C(=O)N[C@@H](Cc1ccccc1)C(=O)N[C@@H](CCCCN)C(=O)N1CCC[C@H]1C(=O)NCC(=O)N[C@@H](CCC(N)=O)C(=O)N[C@@H](CO)C(=O)N[C@@H](CCSC)C(=O)N[C@@H](Cc1ccc(O)cc1)C(=O)O` [compound 26] (H-WHWIQFKPGQSMY-OH; N-terminus and C-terminus assumed), the “Inhibition at 10 μM” value is <90%, the “Inhibition at 20 μM” value is on record as <90%, the “Inhibition at 50 μM” value came to 91.39% and the “Inhibition at 100 μM” value is 100%.
For `CSCC[C@H](NC(=O)[C@@H]1CCCN1C(=O)[C@H](CCC(N)=O)NC(=O)CNC(=O)[C@H](CO)NC(=O)[C@H](CCCCN)NC(=O)[C@H](CC(C)C)NC(=O)[C@H](CC(N)=O)NC(=O)[C@H](CC(C)C)NC(=O)[C@H](Cc1ccccc1)NC(=O)[C@H](Cc1c[nH]cn1)NC(=O)[C@@H](N)CCCCN)C(=O)N[C@@H](Cc1ccc(O)cc1)C(=O)O` [compound 27] (H-KHFLNLKSGQPMY-OH; N-terminus and C-terminus assumed), the “Inhibition at 50 μM” value came to 90.58% and the “Inhibition at 100 μM” value was determined as 100%.
Consider `CSCC[C@H](NC(=O)[C@@H]1CCCN1C(=O)[C@H](CCC(N)=O)NC(=O)CNC(=O)[C@@H]1CCCN1C(=O)[C@H](CCCCN)NC(=O)[C@H](CC(C)C)NC(=O)[C@H](C)NC(=O)[C@H](CC(C)C)NC(=O)[C@H](Cc1ccccc1)NC(=O)[C@H](Cc1c[nH]cn1)NC(=O)[C@@H](N)CCCCN)C(=O)N[C@@H](Cc1ccc(O)cc1)C(=O)O` [compound 28] (H-KHFLALKPGQPMY-OH; N-terminus and C-terminus assumed), for which the “Inhibition at 50 μM” value is <90% and the “Inhibition at 100 μM” value stood at 100%.
For `CSCC[C@H](NC(=O)[C@@H]1CCCN1C(=O)[C@H](CCC(N)=O)NC(=O)CNC(=O)[C@@H]1CCCN1C(=O)[C@H](CCCCN)NC(=O)[C@H](Cc1ccccc1)NC(=O)[C@H](CCCNC(=N)N)NC(=O)[C@H](CC(C)C)NC(=O)[C@H](CC(=O)O)NC(=O)[C@H](Cc1c[nH]cn1)NC(=O)[C@@H](N)CCCCN)C(=O)N[C@@H](Cc1ccc(O)cc1)C(=O)O` [compound 29] (H-KHDLRFKPGQPMY-OH; N-terminus and C-terminus assumed), the “Inhibition at 50 μM” value is <90% and the “Inhibition at 100 μM” value was 97.77%.
The like results for `CC[C@H](C)[C@H](NC(=O)[C@@H](NC(=O)[C@H](CC(C)C)NC(=O)[C@H](Cc1c[nH]c2ccccc12)NC(=O)[C@H](Cc1c[nH]cn1)NC(=O)[C@@H]1CCCN1)[C@@H](C)O)C(=O)N[C@@H](CCCCN)C(=O)N1CCC[C@H]1C(=O)NCC(=O)N[C@@H](CCC(N)=O)C(=O)N1CCC[C@H]1C(=O)N[C@@H](CCSC)C(=O)N[C@@H](Cc1ccc(O)cc1)C(=O)O` [compound 30] (H-PHWLTIKPGQPMY-OH; N-terminus and C-terminus assumed) were, in that order, <90% and <90%.
Consider `CC[C@H](C)[C@H](NC(=O)[C@H](Cc1c[nH]c2ccccc12)NC(=O)[C@H](CCC(=O)O)NC(=O)[C@@H](N)CCCCN)C(=O)N[C@@H](CCC(N)=O)C(=O)N[C@@H](CC(C)C)C(=O)N[C@@H](CCCCN)C(=O)N[C@@H](CC(C)C)C(=O)NCC(=O)N[C@@H](CCC(N)=O)C(=O)N1CCC[C@H]1C(=O)N[C@@H](CCSC)C(=O)N[C@@H](Cc1ccc(O)cc1)C(=O)O` [compound 31] (H-KEWIQLKLGQPMY-OH; N-terminus and C-terminus assumed), for which the “Inhibition at 50 μM” value is listed as <90% and the “Inhibition at 100 μM” value was <90%.
Take `CSCC[C@H](NC(=O)CNC(=O)[C@H](CCC(N)=O)NC(=O)CNC(=O)[C@@H]1CCCN1C(=O)[C@H](CCCCN)NC(=O)[C@H](CC(C)C)NC(=O)[C@H](CO)NC(=O)[C@H](CC(C)C)NC(=O)[C@H](Cc1c[nH]c2ccccc12)NC(=O)[C@H](CO)NC(=O)[C@@H](N)CCCCN)C(=O)N[C@@H](Cc1ccc(O)cc1)C(=O)O` [compound 32] (H-KSWLSLKPGQGMY-OH; N-terminus and C-terminus assumed): the “Inhibition at 50 μM” value is reported as <90% and the “Inhibition at 100 μM” value is on record as <90%.
Take `CSCC[C@H](NC(=O)[C@@H]1CCCN1C(=O)[C@H](CCC(=O)O)NC(=O)CNC(=O)[C@@H]1CCCN1C(=O)[C@H](CCCCN)NC(=O)[C@H](Cc1ccccc1)NC(=O)[C@H](CCC(N)=O)NC(=O)CNC(=O)[C@H](Cc1c[nH]c2ccccc12)NC(=O)[C@H](CCCNC(=N)N)NC(=O)[C@@H](N)Cc1c[nH]c2ccccc12)C(=O)N[C@@H](Cc1ccc(O)cc1)C(=O)O` [compound 33] (H-WRWGQFKPGEPMY-OH; N-terminus and C-terminus assumed): the “Inhibition at 50 μM” value was <90% and the “Inhibition at 100 μM” value is recorded as <90%.
As to `CSCC[C@H](NC(=O)CNC(=O)[C@H](CCC(N)=O)NC(=O)CNC(=O)[C@@H]1CCCN1C(=O)[C@H](Cc1ccccc1)NC(=O)[C@H](Cc1ccccc1)NC(=O)[C@H](CO)NC(=O)[C@H](CC(C)C)NC(=O)[C@H](Cc1c[nH]c2ccccc12)NC(=O)[C@H](Cc1c[nH]cn1)NC(=O)[C@@H]1CCCN1)C(=O)N[C@@H](Cc1ccc(O)cc1)C(=O)O` [compound 34] (H-PHWLSFFPGQGMY-OH; N-terminus and C-terminus assumed), the “Inhibition at 50 μM” value was <90% and the “Inhibition at 100 μM” value is reported as <90%.
With `CSCC[C@H](NC(=O)[C@@H]1CCCN1C(=O)[C@H](CCSC)NC(=O)CNC(=O)[C@@H](NC(=O)[C@H](CCCCN)NC(=O)[C@H](CC(C)C)NC(=O)[C@H](CCC(=O)O)NC(=O)[C@H](CC(C)C)NC(=O)[C@H](Cc1c[nH]c2ccccc12)NC(=O)[C@H](CS)NC(=O)[C@@H](N)CCCCN)[C@@H](C)O)C(=O)N[C@@H](Cc1ccc(O)cc1)C(=O)O` [compound 35] (H-KCWLELKTGMPMY-OH; N-terminus and C-terminus assumed), the “Inhibition at 50 μM” value was <90% and the “Inhibition at 100 μM” value is listed as 97.61%.
The like results for `CSCC[C@H](NC(=O)[C@H](Cc1c[nH]cn1)NC(=O)[C@@H](N)Cc1c[nH]c2ccccc12)C(=O)N[C@@H](CC(C)C)C(=O)N[C@@H](CCC(=O)O)C(=O)N[C@@H](Cc1ccccc1)C(=O)N[C@@H](CCCCN)C(=O)N1CCC[C@H]1C(=O)NCC(=O)N[C@@H](CCC(N)=O)C(=O)N1CCC[C@H]1C(=O)N[C@@H](CCSC)C(=O)N[C@@H](Cc1ccc(O)cc1)C(=O)O` [compound 36] (H-WHMLEFKPGQPMY-OH; N-terminus and C-terminus assumed) were, in that order, <90% and <90%.
